Publication PMC9305750 (Chemmedchem, 2022)
Values joined by “and” are separate entries in the source; they are usually repeats but may differ in a detail not shown here. Identical values can stand only once. “Also recorded” adds a separate entry of the source. Like-named read-outs stand apart in the source and are kept apart here.

Legend:
[1] = biological target: T1, human Nurr1 ligand binding domain (LBD) fused to the Gal4 DNA binding domain (Homo sapiens, UniProt P43354); experiment: Hybrid Gal4-Nurr1 reporter gene assay in transiently transfected HEK293T cells; type: cell-based; settings: for fold act. (maximum Nurr1 activation vs. DMSO (0.1 %)): purified compounds, mean±S.E.M., n≥3
T1 sequence (P43354 360-595 limits assumed): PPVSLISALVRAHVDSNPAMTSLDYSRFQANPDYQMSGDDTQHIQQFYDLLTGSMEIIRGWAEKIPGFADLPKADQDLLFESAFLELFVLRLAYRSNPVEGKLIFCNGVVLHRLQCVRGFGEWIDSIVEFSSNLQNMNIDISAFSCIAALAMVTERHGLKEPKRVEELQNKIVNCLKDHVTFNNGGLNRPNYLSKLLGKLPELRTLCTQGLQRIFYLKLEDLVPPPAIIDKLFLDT

[2] = biological target: T1, human Nurr1 ligand binding domain (LBD) fused to the Gal4 DNA binding domain; settings: for comparison; cited from earlier work
[3] = biological target: Nurr1 LBD (Homo sapiens, UniProt P43354); experiment: HTRF assay of Nurr1 LBD homodimerization; type: biochemical
Chain of Nurr1 LBD (P43354 360-595 limits assumed): as above

Structure (SMILES) | EC50 [1] [µM] | fold act. (maximum Nurr1 activation vs. DMSO (0.1 %)) [1] [fold] | fold act. (maximum Nurr1 activation vs. DMSO (0.1 %)) [2] | effect on Nurr1 LBD homodimerization (HTRF) [3]
Clc1ccc(-c2ccc(CN3CCOc4cc(Cl)ccc43)o2)cc1 [compound 5, 7‐Chloro‐4‐((5‐(4‐chlorophenyl)furan‐2‐yl)methyl)‐3,4‐dihydro‐2H‐benzo[b][1,4]oxazine] | 47 ± 13 | 2.0±0.2 | – | –
Nc1ccnc2cc(Cl)ccc12 [compound 3, 4‐Amino‐7‐chloroquinoline] | – | – | 2.5 fold and 2.5±0.4 fold | –
CCN(CC)CCCC(C)Nc1ccnc2cc(Cl)ccc12 (stereo not shown) [CQ, chloroquine] | – | – | 2.0±0.1 fold | –
CCN(CC)Cc1cc(Nc2ccnc3cc(Cl)ccc23)ccc1O [AQ, amodiaquine] | – | – | 3.6 fold and 3.6±0.1 fold | –
O=C(Nc1ccnc2cc(Cl)ccc12)c1ccc(-c2ccc(Cl)cc2)o1 [compound 4, 5‐(4‐Chlorophenyl)‐N‐(7‐chloroquinolin‐4‐yl)furan‐2‐carboxamide] | 3 ± 0.1 | 2.0±0.1 | – | –
Clc1ccc(-c2ccc(CNc3ccnc4cc(Cl)ccc34)o2)cc1 [3 j, 7‐Chloro‐N‐((5‐(4‐chlorophenyl)furan‐2‐yl)methyl)quinolin‐4‐amine] | 8 ± 1 | 2.5±0.1 | – | diminished dimerization; also recorded: diminished Nurr1 homodimerization
